Experimental data: patent publication US20150025105A1, “INDOLIZINE DERIVATIVES” (priority 2012, published 2015)
Like-named read-outs stand apart in the source and are kept apart here.

Key:
Assay type in all cases: biochemical
[1] = molecular target: T1, human COX-2 (Homo sapiens, UniProt P35354); assay: Cyclooxygenase (COX) inhibition assay, COX-2 (enzyme immunoassay); conditions: Table 2
T1 construct: purchased Cayman Chemical
T1 sequence (P35354 18-604): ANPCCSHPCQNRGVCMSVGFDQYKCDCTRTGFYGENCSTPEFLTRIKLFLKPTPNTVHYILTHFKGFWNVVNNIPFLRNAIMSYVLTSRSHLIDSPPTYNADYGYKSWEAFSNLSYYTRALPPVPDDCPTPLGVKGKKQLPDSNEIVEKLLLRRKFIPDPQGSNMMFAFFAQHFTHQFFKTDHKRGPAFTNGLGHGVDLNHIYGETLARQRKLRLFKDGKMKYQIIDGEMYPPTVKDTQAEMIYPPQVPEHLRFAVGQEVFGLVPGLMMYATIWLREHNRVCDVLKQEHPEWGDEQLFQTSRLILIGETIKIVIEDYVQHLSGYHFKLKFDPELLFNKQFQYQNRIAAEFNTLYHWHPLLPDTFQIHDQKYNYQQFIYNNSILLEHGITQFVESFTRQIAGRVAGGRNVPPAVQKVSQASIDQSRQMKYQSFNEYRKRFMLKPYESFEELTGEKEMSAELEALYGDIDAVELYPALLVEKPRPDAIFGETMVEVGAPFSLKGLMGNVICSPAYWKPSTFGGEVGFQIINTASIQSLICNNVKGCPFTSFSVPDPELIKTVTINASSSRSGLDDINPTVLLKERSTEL
Description: (§1) The ability of the test compounds to inhibit (IC50 values, μM) human COX-1 and COX-2 (Cayman Chemical, Ann Arbor) is determined PGF2α, produced from COX reaction is measured by enzyme immunoassay. Either COX-1 or COX-2 enzyme in the presence of heme and various concentrations of test compound solutions (0.01-10 μM) is incubated after which substrate arachidonic acid is added. The concentration of the test compound causing 50% inhibition (IC50, μM) is calculated from the concentration-inhibition response curve.

[2] = molecular target: T2, human COX-1 (Homo sapiens, UniProt P23219); assay: Cyclooxygenase (COX) inhibition assay, COX-1 (enzyme immunoassay); conditions: Table 2
T2 construct: purchased Cayman Chemical
T2 sequence (P23219 24-599): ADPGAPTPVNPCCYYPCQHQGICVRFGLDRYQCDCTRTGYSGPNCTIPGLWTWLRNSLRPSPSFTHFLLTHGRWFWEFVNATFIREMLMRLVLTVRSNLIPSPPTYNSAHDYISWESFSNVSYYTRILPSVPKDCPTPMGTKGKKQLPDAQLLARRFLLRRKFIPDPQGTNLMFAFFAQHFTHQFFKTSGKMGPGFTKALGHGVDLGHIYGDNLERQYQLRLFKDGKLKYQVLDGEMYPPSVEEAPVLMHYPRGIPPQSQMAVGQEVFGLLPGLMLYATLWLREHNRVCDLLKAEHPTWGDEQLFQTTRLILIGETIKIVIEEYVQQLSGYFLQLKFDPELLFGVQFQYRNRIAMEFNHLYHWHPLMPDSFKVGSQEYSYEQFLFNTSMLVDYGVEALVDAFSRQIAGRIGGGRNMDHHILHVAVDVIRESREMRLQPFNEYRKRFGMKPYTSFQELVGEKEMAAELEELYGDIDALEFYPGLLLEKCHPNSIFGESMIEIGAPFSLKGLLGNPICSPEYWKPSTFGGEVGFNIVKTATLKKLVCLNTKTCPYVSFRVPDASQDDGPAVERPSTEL
Description: as §1

[3] = molecular target: T3, human Lp-PLA2 (Homo sapiens, UniProt Q13093); assay: Lp-PLA2 inhibition assay (UV-spectrometry, 2-thio-PAF/DTNB, 96-well)
T3 construct: purchased Cayman Chemical
T3 sequence (Q13093 22-441): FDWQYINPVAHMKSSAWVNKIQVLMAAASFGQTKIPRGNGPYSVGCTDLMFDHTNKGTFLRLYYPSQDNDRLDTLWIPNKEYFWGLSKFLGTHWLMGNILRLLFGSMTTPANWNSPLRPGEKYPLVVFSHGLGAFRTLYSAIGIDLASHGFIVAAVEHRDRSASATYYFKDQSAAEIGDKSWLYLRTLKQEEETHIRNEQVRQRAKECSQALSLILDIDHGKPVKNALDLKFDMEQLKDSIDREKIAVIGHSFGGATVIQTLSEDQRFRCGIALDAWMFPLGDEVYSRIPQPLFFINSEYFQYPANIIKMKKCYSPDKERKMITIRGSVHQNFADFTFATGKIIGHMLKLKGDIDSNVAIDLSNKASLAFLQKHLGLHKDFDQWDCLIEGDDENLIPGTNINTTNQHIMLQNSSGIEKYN
Description: The ability of synthesized indolizine derivatives (6) to inhibit (IC50 values, μM) human Lp-PLA2 (Cayman Chemical, Ann Arbor, Mich.) was determined based on a UV-spectrometry assay using 96-well plate format. […] The concentration of the test compound causing 50% inhibition (IC50, μM) was determined from the concentration-inhibition response curve (duplicate to quadruplicate determinations).
(§2) Phospholipase inhibition by synthesized compounds toward human Lp-PLA2, sPLA2 IIA and IV (Cayman Chemical Company, Ann Arbor, Mich.) are evaluated using a 96-well plate format. In this assay, different concentrations of test compounds (0.001-30 μM) are incubated with the PLA2 enzymes. The substrate hydrolysis by PLA2 is monitored by UV-spectroscopy. […] The concentration of the test compound causing 50% inhibition (IC50, μM) is determined from the concentration-inhibition response curve. Isothermal calorimetry (ITC) experiments using will be carried out to determine binding constant (KB) and dissociation constant (KD) of Lp-PLA2 inhibitors (Ann. Rev. Biophy. 37, 135-151, 2008; J. Am. Chem. Soc. 125, 10570-10579, 2003)]. Reference compounds (eg: varespladib and darapladib) will be used for comparison.

[4] = molecular target: T4, sPLA2 IIA (Homo sapiens, UniProt P14555); assay: Phospholipase A2 (PLA2) inhibition assay, sPLA2 IIA; conditions: Table 2; for Selectivity Index (sPLA2/Lp-PLA2): ratio of sPLA2 IIA IC50 to Lp-PLA2 IC50
T4 construct: purchased Cayman Chemical Company
T4 sequence (P14555 21-144): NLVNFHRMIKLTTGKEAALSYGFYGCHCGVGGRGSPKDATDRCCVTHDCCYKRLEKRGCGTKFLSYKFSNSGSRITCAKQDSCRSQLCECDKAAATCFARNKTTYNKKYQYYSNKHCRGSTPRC
Description: as §2

[5] = Table 1, substrate 2-thio-PAF, DTNB, 0.1M Tris-HCl pH 7.2, read-out: Lp-PLA2 (IC50)
[6] = Table 2, read-out: Lp-PLA2 Inhibition (IC50)

SMILES | IC50 [1] [nM] | IC50 [2] [nM] | IC50 [3, 5] [nM] | IC50 [3, 6] [nM] | IC50 [4] [nM] | Selectivity Index (sPLA2/Lp-PLA2) [4]
CC(=O)c1c(-c2ccccc2)c(C(=O)c2ccc(Br)cc2)c2ccccn12 [Cmpd 9, 1-[1-(4-bromobenzoyl)-2-phenylindolizin-3-yl]ethanone] | > 10000 | > 10000 | 940 | 700 | > 10000 | >14.2
CSc1ccc(C(=O)c2c(-c3ccccc3)c(C(C)=O)n3ccccc23)cc1 [Cmpd 6, 1-[1-(4-(methylthio)benzoyl)-2-phenylindolizin-3-yl]ethanone] | > 10000 | > 10000 | 240 | 250 | > 10000 | >40
COc1ccc(C(=O)c2c(-c3ccccc3)c(C(C)=O)n3ccccc23)cc1 [Cmpd 5, 1-[1-(4-methoxybenzoyl)-2-phenylindolizin-3-yl]ethanone] | > 10000 | > 10000 | 760 | 760 | > 10000 | >13.1
CC(=O)c1c(-c2ccccc2)c(C(=O)c2ccc(F)c(F)c2)c2ccccn12 [Cmpd 12, 1-[1-(3,4-difluorobenzoyl)-2-phenylindolizin-3-yl]ethanone] | – | – | 790 | – | – | –
CC(=O)c1c(-c2ccccc2)c(C(=O)c2ccc(C(F)(F)F)cc2)c2ccccn12 [Cmpd 7, 1-[2-phenyl-1-(4-(trifluoromethyl)benzoyl)indolizin-3-yl]ethanone] | > 10000 | > 10000 | 60 | 60 | > 10000 | >166.6
CC(=O)c1c(-c2ccc(C)cc2)c(C(=O)c2ccccc2)c2ccccn12 [Cmpd 11, 1-[1-benzoyl-2-p-tolylindolizin-3-yl]ethanone] | – | – | 20 | – | – | –
CC(=O)c1c(-c2ccccc2)c(C(=O)c2ccccc2)c2ccccn12 [Cmpd 1] | > 10000 | > 10000 | 510 | 510 | > 10000 | >19.6
CC(=O)c1c(-c2ccccc2)c(C(=O)c2ccc(C)cc2)c2ccccn12 [Cmpd 2, 1-[1-(4-methylbenzoyl)-2-phenylindolizin-3-yl]ethanone] | > 10000 | > 10000 | 30 | 20 | > 10000 | >500
CCCCc1ccc(C(=O)c2c(-c3ccccc3)c(C(C)=O)n3ccccc23)cc1 [Cmpd 4] | > 10000 | > 10000 | 290 | 300 | > 10000 | >33.3
CC(=O)c1c(-c2ccccc2)c(C(=O)c2ccc(F)cc2)c2ccccn12 [Cmpd 8, 1-[1-(4-fluorobenzoyl)-2-phenylindolizin-3-yl]ethanone] | > 10000 | > 10000 | 250 | 570 | > 10000 | >17.5
CC(=O)c1c(-c2ccccc2)c(C(=O)c2ccc(Cl)cc2)c2ccccn12 [Cmpd 10, 1-[1-(4-chlorobenzoyl)-2-phenylindolizin-3-yl]ethanone] | > 10000 | > 10000 | 700 | 940 | > 10000 | >10.6
CC(=O)c1c(-c2ccccc2)c(C(=O)c2ccc(C(C)C)cc2)c2ccccn12 [Cmpd 3, 1-[1-(4-isopropylbenzoyl)-2-phenylindolizin-3-yl]ethanone] | > 10000 | > 10000 | 800 | 800 | > 10000 | >12.5
